Test [1] concerns Peronospora parasitica isolate Emwa. Kind of test: Action against Peronospora parasitica in Arabidopsis overexpressing NIM1 (lines 6E, 7C) and wild-type Ws. In kind it is in vivo. Conditions: for inhibition at 500 µg/mL: fosetyl 0.5 g/l; for inhibition at 5000 µg/mL: fosetyl 5.0 g/l. From the text: The plant lines used in this example (6E and 7C) were generated from transformation of wild-type Arabidopsis thaliana plants (ecotype Ws) with the BamHI-HindIII NIM1 genomic fragment (SEQ ID NO:1—bases 1249-5655), as described above in Example 21. The fungicides metalaxyl, fosetyl, and copper hydroxide, formulated as 25%, 80%, and 70% active ingredient (ai), respectively, with a wettable powder carrier, were applied as fine mist to leaves of three week-old transgenic Ws plants constitutively expressing the NIM1 gene. The wettable powder alone was applied as a control. Three days later, plants were inoculated with a Peronospora parasitica isolate Emwa conidial suspension (1-2×10^5 spores/ml), as described in Delaney et al. (1995). Following inoculation, plants were covered to maintain high humidity and were placed in a Percival growth chamber at 17° C. with a 14-hr day/10-hr night cycle (Uknes et al., 1993). Tissue was harvested 8 days after inoculation.
Fungal infection progression was followed for 12 days by viewing under a dissecting microscope to score development of conidiophores (Delaney, et al. (1994); Dietrich, et al. (1994)). Lactophenoltrypan blue staining of individual leaves was carried out to observe fungal growth within leaf tissue. Fungal growth was quantified using a rRNA fungal probe obtained by PCR according to White et al. (1990; PCR Protocols: A guide to Methods and Application, 315-322) using primers NS1 and NS2 and P. parasitica EmWa DNA as templates. RNA was purified from frozen tissue by phenol/chloroform extraction following lithium chloride precipitation (Lagrimini et al, 1987: PNAS, 84: 7542-7546). Samples (7.5 μg) were separated by electrophoresis through formaldehyde agarose gels and blotted to nylon membranes (Hybond-N+, Amersham) as described by Ausbel et al. (1987). Hybridizations and washing were according to Church and Gilbert (1984, PNAS, 81: 1991-1995). Relative amounts of the transcript were determined using a Phosphor Imager (Molecular Dynamics, Sunnyvale, Calif.) following manufacturers instructions. Sample loading was normalized by probing stripped filter blots with the constitutively expressed b-tubulin Arabidopsis cDNA.

For test [2], the system named is Peronospora parasitica Emwa. Briefly: Action against Peronospora parasitica Emwa in Arabidopsis thaliana (Ws), rRNA fungal probe. It is filed as in vivo.
For test [3], the system named is Colletotrichum lagenarium. Briefly: Action against Colletotrichum lagenarium on Cucumis sativus L., soil application. It is filed as in vivo.
Test [4] deals with Colletotrichum lagenarium. Kind of test: Action against Colletotrichum lagenarium on Cucumis sativus L., foliar application. It is filed as in vivo.
A further test relates to Cercospora nicotianae. Kind of test: Action against Cercospora nicotianae on tobacco plants. In kind it is in vivo.
The subject of another test is Puccinia recondita. Briefly: Action against Puccinia recondita in wheat.
Test [5] relates to Pyricularia oryzae. In kind it is in vivo.
For test [6], the system named is Pyricularia oryzae. It is filed as in vivo. This is another data set of the same source.
In another test the test system is Erysiphe graminis. Briefly: Action against Erysiphe graminis on barley (residual-protective / systemic).
The mark [7] stands for this setting: Hyaloperonospora parasitica, in Arabidopsis thaliana, Table 37, wt Ws, read-out: Fungal Growth Inhibition % O (observed).
[8] abbreviates: Hyaloperonospora parasitica, in Arabidopsis thaliana, wild-type Ws (Table 38), read-out: Fungal Growth Inhibition % O (observed).

SMILES strings stand for the structures. Like-named read-outs stand apart in the source and are kept apart here.

Description for Erysiphe graminis: Residual-protective action: Barley plants about 8 cm in height were sprayed to drip point with an aqueous spray mixture (max. 0.02 % active ingredient) and were dusted 3 to 4 days later with conidia of the fungus. The infected plants were stood in a greenhouse at 22°. Fungus infestation was generally evaluated 10 days after infection.
Systemic action: Barley plants about 8 cm in height were watered with an aqueous spray mixture (max. 0.002 % active ingredient, based on the volume of the soil). […] The plants were dusted with conidia of the fungus 3 to 4 days later. The infected plants were stood in a greenhouse at 22°. Fungus infestation was generally evaluated 10 days after infection.
Description for Puccinia recondita: 7-day-old wheat plants were sprayed to drip point with a spray mixture prepared from a formulated active ingredient, or combination of active ingredients. After 4 days, the treated plants were infected with a conidia suspension of the fungus, and the treated plants were subsequently incubated for 2 days at a relative atmospheric humidity of 90-100% and 20 C. 10 days post-infection, the fungus infestation was assessed.

Regarding `[Cu+2].[OH-].[OH-]` [Cu(OH)2, copper hydroxide], the “Fungal Growth Inhibition % O (observed)” value is on record as 0% in [1] (Cu(OH)2 0.02 g/l, wild-type Ws (Table 39)); 0% in test [1] (Cu(OH)2 0.02 g/l, wild-type Ws (Table 40)); 0% in [1] (Cu(OH)2 0.2 g/l, wild-type Ws (Table 39)); 0% in test [1] (Cu(OH)2 0.2 g/l, wild-type Ws (Table 40)); 0% in test [1] (Cu(OH)2 2.0 g/l, wild-type Ws (Table 39)); 0% in test [1] (Cu(OH)2 2.0 g/l, wild-type Ws (Table 40)). Besides, the “Fungal Growth Inhibition % O (observed)” value in test [2] (Table 32, Ws, Cu(OH)2 alone 0.01 g/l) was found to be 0%.

As to `CO/C=C(/C(=O)OC)c1ccccc1Oc1cc(Oc2ccccc2C#N)ncn1` [azoxystrobin, methyl-(E)-2-{2-[6-(2-cyanophenoxy)pyrimidin-4-yloxy]phenyl}-3-methoxyacrylate], the “% action O (observed)” value is listed as 0% in test [3] (Table 5, comp. II alone 0.2 ppm); 9% in test [3] (Table 5, comp. II alone 0.6 ppm); 28% in [3] (Table 5, comp. II alone 2 ppm); 66% in test [3] (Table 5, comp. II alone 6 ppm); 1% in test [3] (Table 8, comp. II alone 0.02 ppm); 5% in test [3] (Table 8, comp. II alone 0.06 ppm). In addition, the “% action O (observed)” value in test [3] (Table 8, comp. II alone 0.6 ppm) was determined as 27%; in [3] (Table 8, comp. II alone 2 ppm) it was 61%; in test [3] (Table 8, comp. II alone 6 ppm), 93%; in [4] (Table 4, comp. II alone 0.06 ppm), 5%; in [4] (Table 4, comp. II alone 0.2 ppm) it was 9%; in [4] (Table 4, comp. II alone 0.6 ppm) it was 12%. Further, the “% action O (observed)” value in [4] (Table 4, comp. II alone 6 ppm) is listed as 17%; in test [4] (Table 7, comp. II alone 2 ppm), 18%; in test [4] (Table 7, comp. II alone 6 ppm), 75%.

In the case of `CCO[PH](=O)O` [fosetyl, ethyl hydrogen phosphonate], the inhibition – broadly, the drop in the measured response relative to a control, in per cent – at 50 µg/mL in [1] (Hyaloperonospora parasitica, in Arabidopsis thaliana, Table 37, wt Ws, fosetyl 0.05 g/l, read-out: Fungal Growth Inhibition % O (observed)) turned out to be 0%. Also, in [1] (setting [7]), the inhibition at 500 µg/mL stood at 2% and the inhibition at 5000 µg/mL amounted to 7%. For the same compound, in [1] (setting [8]), the inhibition at 500 µg/mL was determined as 2% and the inhibition at 5000 µg/mL came out at 7%. In addition, the inhibition at 40 µg/mL in test [2] (Hyaloperonospora parasitica, in Arabidopsis thaliana, Table 31, Ws, fosetyl alone 0.04 g/l, read-out: Fungal Growth Inhibition % O (observed)) was 0%. In test [2] (Hyaloperonospora parasitica, in Arabidopsis thaliana, Table 31, Ws, fosetyl alone 0.2 g/l, read-out: Fungal Growth Inhibition % O (observed)), the inhibition at 200 µg/mL turned out to be 10%. The inhibition at 1000 µg/mL in test [2] (Hyaloperonospora parasitica, in Arabidopsis thaliana, Table 31, Ws, fosetyl alone 1.0 g/l, read-out: Fungal Growth Inhibition % O (observed)) was 40%.

Regarding `CC(C)(C)C(O)(CCc1ccc(Cl)cc1)Cn1cncn1` (stereo not shown) [tebuconazol, μ-[2-(4-chlorophenyl)ethyl]-μ-(1,1-dimethylethyl)-1H-1,2,4-triazole-1-ethanol], the “% action O (observed)” value in the test on Cercospora nicotianae (Table 9, comp. II alone 2 ppm) came to 0%; in the test with Cercospora nicotianae (Table 9, comp. II alone 6 ppm) it was 0%.

Consider `CC(Cc1ccc(C(C)(C)C)cc1)CN1CCCCC1` (stereo not shown) [fenpropidine, 1-[3-(4-tert-butylphenyl)-2-methylpropyl]-piperidine], for which the “% action O (observed)” value with Puccinia recondita (Table 20, comp. II alone 20 kg a.i. per ha) is listed as 40%; in the test on Puccinia recondita (Table 20, comp. II alone 60 kg a.i. per ha) it was 60%.

Take `CC(Cc1ccc(C(C)(C)C)cc1)CN1C[C@@H](C)O[C@@H](C)C1` (relative stereo) [fenpropimorph, cis-4-[3-(4-tert-butylphenyl)-2-methylpropyl]-2,6-dimethylmorpholine]: the “% action O (observed)” value in the test with Cercospora nicotianae (Table 11, comp. II alone 2 kg a.i. per ha) is 13%; in the test with Cercospora nicotianae (Table 11, comp. II alone 6 kg a.i. per ha) it was 23%; in the test on Cercospora nicotianae (Table 11, comp. II alone 10 kg a.i. per ha), 42%.

As to `Cc1cccc2sc3nncn3c12` [tricyclazole, 5-methyl-1,2,4-triazolo[3,4-b][1,3]benzothiazole], the “% action O (observed)” value in the test with Pyricularia oryzae [5] (Table 15, comp. II alone 0.1 ppm) turned out to be 32%; in the test on Pyricularia oryzae [5] (Table 15, comp. II alone 0.25 ppm), 48%; with Pyricularia oryzae [5] (Table 15, comp. II alone 0.5 ppm) it was 71%; in the test with Pyricularia oryzae [5] (Table 15, comp. II alone 1 ppm), 74%.

As to `CO/N=C(/C(=O)OC)c1ccccc1COc1ccccc1C` [cresoxime methyl, methyl-(E)-2-methoximino-2-[μ-(o-tolyloxy)-o-tolyl]acetate], the “% action O (observed)” value came out at 0% in test [4] (Table 6, comp. II alone 2 ppm) and 41% in test [4] (Table 6, comp. II alone 20 ppm).

On to `CC1COC(Cn2cncn2)(c2ccc(Oc3ccc(Cl)cc3)cc2Cl)O1` (stereo not shown) [difenoconazole, 1-{2-[2-chloro-4-(4-chlorophenoxy)phenyl]-4-methyl-1,3-dioxolan-2-ylmethy 1)-1H-1,2,4-triazole], for which the “% action O (observed)” value stood at 3% in the test on Cercospora nicotianae (Table 12, comp. II alone 0.6 kg a.i. per ha); 23% with Cercospora nicotianae (Table 12, comp. II alone 2 kg a.i. per ha); 32% in the test with Cercospora nicotianae (Table 12, comp. II alone 6 kg a.i. per ha).

`CCC1(C(=O)NC(C)c2ccc(Cl)cc2)C(C)C1(Cl)Cl` [KTU 3616, (1R,3S/1S,3R)-2,2-dichloro-N-[(R)-1-(4-chlorophenyl)ethyl]-1-ethyl-3-methylcyclopropanecarboxamide]: the “% action O (observed)” value stood at 0% in the test on Pyricularia oryzae [6] (Table 13, comp. II alone 0.02 ppm); 28% in the test with Pyricularia oryzae [6] (Table 13, comp. II alone 0.06 ppm); 47% with Pyricularia oryzae [6] (Table 13, comp. II alone 0.2 ppm); 79% with Pyricularia oryzae [6] (Table 13, comp. II alone 0.6 ppm); 83% with Pyricularia oryzae [6] (Table 13, comp. II alone 2 ppm); 91% in the test with Pyricularia oryzae [6] (Table 13, comp. II alone 6 ppm).

Regarding `CC1(C)CCC(Cc2ccc(Cl)cc2)C1(O)Cn1cncn1` (stereo not shown) [metconazol, 5-(4-chlorobenzyl)-2,2-dimethyl-1-(1H-1,2,4-triazol-1-ylmethyl)-cyclopentanol], the “% action O (observed)” value is reported as 10% with Erysiphe graminis (Table 1, comp. II alone 0.6 ppm); 40% in the test on Erysiphe graminis (Table 1, comp. II alone 2 ppm); 51% in the test with Erysiphe graminis (Table 1, comp. II alone 6 ppm); 65% in the test on Erysiphe graminis (Table 1, comp. II alone 20 ppm); 17% in the test on Erysiphe graminis (Table 3, comp. II alone 6 ppm); 33% in the test on Erysiphe graminis (Table 3, comp. II alone 20 ppm). The “% action O (observed)” value in the test on Erysiphe graminis (Table 3, comp. II alone 60 ppm) stood at 50%.

Regarding `CC(C1CC1)C(O)(Cn1cncn1)c1ccc(Cl)cc1` (stereo not shown) [cyproconazol, μ-(4-chlorophenyl)-μ-(1-cyclopropylethyl)-1H-1,2,4-triazole-1-ethanol], the “% action O (observed)” value in the test on Cercospora nicotianae (Table 10, comp. II alone 2 ppm) turned out to be 0%; in the test on Cercospora nicotianae (Table 10, comp. II alone 6 ppm) it was 0%.

(Values after US20020133846A1, “Method for protecting plants” (priority 1996, published 2002).)
